Test results from publication PMC6946680, “Modulation of brain cation-Cl^− cotransport via the SPAK kinase inhibitor ZT-1a” (Nature Communications, 2020).
Where “and” joins values, the source holds several entries; their conditions need not be identical. Identical values can stand only once.

Legend:
CSK = experiment: Kinase profiling panel; type: biochemical
Protocol: (§1) Supplementary Table 2. ZT-1a kinase profiling data6.
(§2) ZT-1a was tested at 10 and 1 µM against a panel of 140 recombinant kinases in an enzymatic
(§3) activity-based assay performed by the International Centre for Kinase Profiling in the MRC
(§4) Protein Phosphorylation and Ubiquitylation Unit. Values represent % residual kinase activity

MARK2 = experiment: Kinase profiling panel; type: biochemical
Protocol: as §1, §2, §3, §4

IRAK4 = experiment: Kinase profiling panel; type: biochemical
Protocol: as §1, §2, §3, §4

MST4 = experiment: Kinase profiling panel; type: biochemical
Protocol: as §1, §2, §3, §4

TAK1 = experiment: Kinase profiling panel; type: biochemical
Protocol: as §1, §2, §3, §4

MINK1 = experiment: Kinase profiling panel; type: biochemical
Protocol: as §1, §2, §3, §4

MEKK1 = experiment: Kinase profiling panel; type: biochemical
Protocol: as §1, §2, §3, §4

MARK3 = experiment: Kinase profiling panel; type: biochemical
Protocol: as §1, §2, §3, §4

PIM2 = experiment: Kinase profiling panel; type: biochemical
Protocol: as §1, §2, §3, §4

RIPK2 = experiment: Kinase profiling panel; type: biochemical
Protocol: as §1, §2, §3, §4

PINK = experiment: Kinase profiling panel; type: biochemical
Protocol: as §1, §2, §3, §4

PKCz = experiment: Kinase profiling panel; type: biochemical
Protocol: as §1, §2, §3, §4

AMPK (hum) = experiment: Kinase profiling panel; type: biochemical, human
Protocol: as §1, §2, §3, §4

GST–[T233E]SPAK kinase = molecular target: T1, GST–[T233E]SPAK kinase (Homo sapiens, UniProt Q9UEW8, T231E); experiment: SPAK kinase assay with CATCHtide and IC50 determination; type: biochemical
T1 construct: made in house; host or cells: E. coli
Excerpt: II. Experimental procedures
1. Reagents and General methods
Tissue culture reagents were from Life Technologies. P81 phosphocellulose paper was from Whatman […]
and [γ-32P]-ATP was from Perkin Elmer. […] Protein G […]
sepharose was from Amersham. DNA constructs used for transfection were purified from Escherichia coli DH5α using Qiagen or Invitrogen plasmid Maxi kits according to the manufacturer's protocol. All DNA constructs were verified by DNA sequencing.
2. Plasmids, protein expression and purification
DNA clones were from the Division of Signal Transduction Therapy (University of Dundee). The SPAK proteins were expressed in E. Coli and purified as described previously 1.
3. SPAK kinase assays and IC50 determination
SPAK kinase assays employed CATCHtide (cation chloride co-transporter peptide substrate). Peptide kinase assays, performed in triplicate, were set up in a total volume of 50 μl containing 0.5 μg GST– […]
cpm/pmol) and the indicated concentrations of inhibitor dissolved in DMSO. After incubation for 30 min at 30°C, reactions were terminated by spotting 40 μl of the reaction mix onto P81 phosphocellulose paper and immersion in 50 mM phosphoric acid. The papers were washed extensively and incorporation of [γ-32P]ATP into CATCHtide was quantified by Cerenkov counting.
IC50 values were calculated with GraphPad Prism using non-linear regression analysis.
4. Fluorescence polarization […]
concentrations between 0.00001 to 1 mM. Data points are the means of three determinations, with error […]
A Supplemental Fig. 7 Effects of increasing concentrations of ZT-1a on SPAK activity in the absence […]
the absence or presence of five-fold molar excess of wild-type MO25α. b Kinetic data determined for B ZT-1a in the absence or presence of five-fold molar excess of wild-type MO25α. Data are means of […]
presence of wild-type MO25α.

Cc1cc(C(C#N)c2ccc(Cl)cc2)c(Cl)cc1NC(=O)c1cc(Cl)ccc1O (stereo not shown) [ZT-1a, 5-chloro-N-(5-chloro-4-((4-chlorophenyl)(cyano)methyl)-2-methylphenyl)-2-hydroxybenzamide]
% residual kinase activity (CSK; 1 µM): 96±8%
% residual kinase activity (CSK; 10 µM): 106±29%
% residual kinase activity (MARK2; 1 µM): 103±8%
% residual kinase activity (MARK2; 10 µM): 89±15%
% residual kinase activity (IRAK4; 1 µM): 127±0%
% residual kinase activity (IRAK4; 10 µM): 127±11%
% residual kinase activity (MST4; 1 µM): 63±10%
% residual kinase activity (MST4; 10 µM): 63±0%
% residual kinase activity (TAK1; 1 µM): 117±22%
% residual kinase activity (TAK1; 10 µM): 103±5%
% residual kinase activity (MINK1; 1 µM): 107±5%
% residual kinase activity (MINK1; 10 µM): 108±6%
% residual kinase activity (MEKK1; 1 µM): 109±1%
% residual kinase activity (MEKK1; 10 µM): 93±16%
% residual kinase activity (MARK3; 1 µM): 71±6%
% residual kinase activity (MARK3; 10 µM): 68±8%
% residual kinase activity (PIM2; 1 µM): 93±5%
% residual kinase activity (PIM2; 10 µM): 93±3%
% residual kinase activity (RIPK2; 1 µM): 128±5%
% residual kinase activity (RIPK2; 10 µM): 120±3%
% residual kinase activity (PINK; 1 µM): 101±13%
% residual kinase activity (PINK; 10 µM): 59±4%
% residual kinase activity (PKCz; 1 µM): 80±11%
% residual kinase activity (PKCz; 10 µM): 122±28%
% residual kinase activity (AMPK (hum); 1 µM): 126±4%
% residual kinase activity (AMPK (hum); 10 µM): 108±4%
change of SPAK IC50 values on addition of MO25α (GST–[T233E]SPAK kinase): not significantly altered
SPAK kinase activity signal (Fig S3 source data) (GST–[T233E]SPAK kinase; ATP 0.01 mM, inhibitor 1e-5 uM): 911 and 899 and 905
SPAK kinase activity signal (Fig S3 source data) (GST–[T233E]SPAK kinase; ATP 0.01 mM, inhibitor 0.0001 uM): 906 and 879 and 883
SPAK kinase activity signal (Fig S3 source data) (GST–[T233E]SPAK kinase; ATP 0.01 mM, inhibitor 0.001 uM): 901 and 899 and 907
SPAK kinase activity signal (Fig S3 source data) (GST–[T233E]SPAK kinase; ATP 0.01 mM, inhibitor 0.003 uM): 805
SPAK kinase activity signal (Fig S3 source data) (GST–[T233E]SPAK kinase; ATP 0.01 mM, inhibitor 0.03 uM): 855 and 847 and 825
SPAK kinase activity signal (Fig S3 source data) (GST–[T233E]SPAK kinase; ATP 0.01 mM, inhibitor 0.1 uM): 867 and 893 and 851
SPAK kinase activity signal (Fig S3 source data) (GST–[T233E]SPAK kinase; ATP 0.01 mM, inhibitor 0.3 uM): 813 and 804 and 787
SPAK kinase activity signal (Fig S3 source data) (GST–[T233E]SPAK kinase; ATP 0.01 mM, inhibitor 1 uM): 756 and 821 and 793
SPAK kinase activity signal (Fig S3 source data) (GST–[T233E]SPAK kinase; ATP 0.01 mM, inhibitor 3 uM): 663 and 688 and 705
SPAK kinase activity signal (Fig S3 source data) (GST–[T233E]SPAK kinase; ATP 0.01 mM, inhibitor 10 uM): 478 and 525 and 503
SPAK kinase activity signal (Fig S3 source data) (GST–[T233E]SPAK kinase; ATP 0.01 mM, inhibitor 100 uM): 456 and 325 and 371
SPAK kinase activity signal (Fig S3 source data) (GST–[T233E]SPAK kinase; ATP 0.01 mM, inhibitor 1000 uM): 220 and 194 and 213
SPAK kinase activity signal (Fig S3 source data) (GST–[T233E]SPAK kinase; ATP 0.1 mM, inhibitor 1e-5 uM): 902 and 887 and 849
SPAK kinase activity signal (Fig S3 source data) (GST–[T233E]SPAK kinase; ATP 0.1 mM, inhibitor 0.0001 uM): 867 and 845 and 874
SPAK kinase activity signal (Fig S3 source data) (GST–[T233E]SPAK kinase; ATP 0.1 mM, inhibitor 0.001 uM): 844 and 856 and 837
SPAK kinase activity signal (Fig S3 source data) (GST–[T233E]SPAK kinase; ATP 0.1 mM, inhibitor 0.03 uM): 798 and 815 and 804
SPAK kinase activity signal (Fig S3 source data) (GST–[T233E]SPAK kinase; ATP 0.1 mM, inhibitor 0.1 uM): 796 and 805 and 782
SPAK kinase activity signal (Fig S3 source data) (GST–[T233E]SPAK kinase; ATP 0.1 mM, inhibitor 0.3 uM): 796 and 786 and 754
SPAK kinase activity signal (Fig S3 source data) (GST–[T233E]SPAK kinase; ATP 0.1 mM, inhibitor 1 uM): 802 and 788 and 766
SPAK kinase activity signal (Fig S3 source data) (GST–[T233E]SPAK kinase; ATP 0.1 mM, inhibitor 3 uM): 706 and 686 and 718
SPAK kinase activity signal (Fig S3 source data) (GST–[T233E]SPAK kinase; ATP 0.1 mM, inhibitor 10 uM): 561 and 556 and 583
SPAK kinase activity signal (Fig S3 source data) (GST–[T233E]SPAK kinase; ATP 0.1 mM, inhibitor 100 uM): 226 and 309 and 284
